{
  "source": "paper PMC10005185",
  "about": "“Structure-guided engineering of a receptor-agonist pair for inducible activation of the ABA adaptive response to drought” (Science Advances, 2023)",
  "key": {"ABI1 with AtPYL1": {"target": "T1, ABI1 with AtPYL1 (Arabidopsis thaliana, UniProt Q8VZS8)", "T1 construct": "His; made in house", "assay": "PP2C inhibition assay, ABI1 with AtPYL1", "type": "biochemical", "conditions": "1 µM phosphatase:2 µM receptor; read-out: IC50 of ABI1 with AtPYL1", "method": "His-tagged receptors and phosphatases were purified using nickel–nitrilotriacetic acid (Ni-NTA) affinity chromatography. Protein integrity was analyzed by SDS–polyacrylamide gel electrophoresis, followed by InstantBlue staining. Phosphatase activity was measured using p-Nitrophenyl Phosphate (pNPP) (25 mM) as substrate, 10 mM MnCl2,1 μM PP2C, and 2 μM of the indicated receptors. Proteins were incubated with the ligands for 10 min at room temperature. pNPP was then added to start the reactions, and the absorbance at 405 nm was monitored for 20 min in a ViktorX5 plate reader. Assays were repeated twice. For dose-response experiments, IC50 values were obtained with GraphPad Prism 9 using a nonlinear regression curve fit. Each ligand concentration was tested in triplicate. Phosphatase activity of ABI1 was measured using RRA(phosphoT)VA peptide as a substrate, as described ([27]). […]\n(D) Dose response analysis of iSB09 or ABA-dependent inhibition of ABI1 (blue and black lines, respectively) in presence of either AtPYL1 or AtPYR1. Values (average of duplicates) show PP2C activity after incubation with the indicated concentration of ligand and receptor at 1:2 ratio (1 µM phosphatase:2 µM receptor). […]\nwhereas with AtPYR1 was 200 nM and 213 nM, for ABA and iSB09, respectively. Ligands were assayed"}, "HAB1 with AtPYL4": {"target": "T2, HAB1 with AtPYL4 (Arabidopsis thaliana, UniProt O80920)", "T2 construct": "His; made in house", "T2 sequence (Q9CAJ0 179-511)": "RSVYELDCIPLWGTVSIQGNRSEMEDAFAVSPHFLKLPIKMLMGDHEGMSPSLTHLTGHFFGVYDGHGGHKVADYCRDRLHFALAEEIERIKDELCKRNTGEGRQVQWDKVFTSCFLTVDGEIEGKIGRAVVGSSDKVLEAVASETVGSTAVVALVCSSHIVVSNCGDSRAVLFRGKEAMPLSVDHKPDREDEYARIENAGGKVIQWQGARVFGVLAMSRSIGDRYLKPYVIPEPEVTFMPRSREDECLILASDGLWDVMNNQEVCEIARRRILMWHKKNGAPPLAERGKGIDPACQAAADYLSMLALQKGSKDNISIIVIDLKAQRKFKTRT", "T2 sequence (O80920 whole entry)": "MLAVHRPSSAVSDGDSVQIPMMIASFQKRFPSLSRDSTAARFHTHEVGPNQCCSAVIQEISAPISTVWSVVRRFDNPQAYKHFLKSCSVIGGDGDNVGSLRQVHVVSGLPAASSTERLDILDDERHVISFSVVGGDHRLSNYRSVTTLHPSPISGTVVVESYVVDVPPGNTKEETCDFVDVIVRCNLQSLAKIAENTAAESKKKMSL", "assay": "PP2C inhibition assay, HAB1 with AtPYL4", "type": "biochemical", "conditions": "1 µM phosphatase:2 µM receptor", "method": "His-tagged receptors and phosphatases were purified using nickel–nitrilotriacetic acid (Ni-NTA) affinity chromatography. Protein integrity was analyzed by SDS–polyacrylamide gel electrophoresis, followed by InstantBlue staining. Phosphatase activity was measured using p-Nitrophenyl Phosphate (pNPP) (25 mM) as substrate, 10 mM MnCl2,1 μM PP2C, and 2 μM of the indicated receptors. Proteins were incubated with the ligands for 10 min at room temperature. pNPP was then added to start the reactions, and the absorbance at 405 nm was monitored for 20 min in a ViktorX5 plate reader. Assays were repeated twice. For dose-response experiments, IC50 values were obtained with GraphPad Prism 9 using a nonlinear regression curve fit. Each ligand concentration was tested in triplicate. Phosphatase activity of ABI1 was measured using RRA(phosphoT)VA peptide as a substrate, as described ([27]).\nFig. S6. QB lacks bioactivity in tomato whereas iSB09 is\n(A) Quantification of the leaf temperature difference at 2 and 5 days after spraying tomato plants with 0.1 % DMSO\n(mock- treated control), 10 µM iSB09 or 10 µM QB.\nAsterisk indicates p<0.001 (Student’s t test). Values show individual points and average ± SD (n=4 replicates for mock and chemical treatments). (B) IR-images of representative tomato plants at 2 days after being treated with 0.1 % DMSO […]"}, "ABI1 with CsPYL1^5m": {"test_system": "ABI1 with CsPYL1^5m", "type": "biochemical, Citrus sinensis (CsPYL1^5m); Arabidopsis thaliana (ABI1)", "method": "(§1) His-tagged receptors and phosphatases were purified using nickel–nitrilotriacetic acid (Ni-NTA) affinity chromatography. Protein integrity was analyzed by SDS–polyacrylamide gel electrophoresis, followed by InstantBlue staining. Phosphatase activity was measured using p-Nitrophenyl Phosphate (pNPP) (25 mM) as substrate, 10 mM MnCl2,1 μM PP2C, and 2 μM of the indicated receptors. […] Assays were repeated twice. For dose-response experiments, IC50 values were obtained with GraphPad Prism 9 using a nonlinear regression curve fit. Each ligand concentration was tested in triplicate. Phosphatase activity of ABI1 was measured using RRA(phosphoT)VA peptide as a substrate, as described ([27])."}, "AtHAB1ΔN with CsPYL1^5m": {"target": "AtHAB1ΔN with CsPYL1^5m (Citrus sinensis, UniProt A0A067E666, F137I/T135L/T153I/V112L/V168A)", "sequence (A0A067E666 1-209 V112L/T135L/F137I/T153I/V168A)": "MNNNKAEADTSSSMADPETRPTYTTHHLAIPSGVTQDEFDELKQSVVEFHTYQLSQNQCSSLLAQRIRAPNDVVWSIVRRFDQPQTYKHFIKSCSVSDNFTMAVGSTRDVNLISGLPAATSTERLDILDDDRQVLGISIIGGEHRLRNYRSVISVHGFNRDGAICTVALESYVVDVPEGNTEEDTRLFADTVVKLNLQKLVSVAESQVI", "sequence (Q9CAJ0 179-511 partner)": "as the sequence (Q9CAJ0 179-511) above", "assay": "PP2C inhibition assay, HAB1 with CsPYL1^5m", "type": "biochemical, Citrus sinensis (CsPYL1^5m); Arabidopsis thaliana (HAB1)", "conditions": "IC50 for inhibition of HAB1 (ΔNHAB1) in the presence of CsPYL1^5m, pNPP as substrate", "method": "as §1"}, "[1]": {"test_system": "Nicotiana benthamiana WT plants", "assay": "IR thermography of leaf temperature, N. benthamiana", "type": "in vivo", "conditions": "nontransformed leaves, 24 hours after spraying, 50 μM ABA or 100 μM iSB07 or iSB09, compared to mock", "method": "IR images were taken using a FLIR […] thermocamera 1 day after the treatment (for N. benthamiana) or 2 and 5 days (for S. lycopersicum). Quantification was performed using the FLIR tools software on fully expanded leaves by analyzing 10 sections per leaf. At least six plants per genotype and treatment were analyzed in each experiment. Experiments were repeated twice. The average plant temperature ± SD of all the plants for each treatment and genotype was calculated and used to report the increase in temperature produced by each treatment. Statistical comparisons among genotypes were performed by either pairwise t tests or one-way ANOVA."}, "ABA-responsive markers": {"test_system": "ABA-responsive markers", "assay": "RNA sequencing of ABA-responsive markers", "type": "in vivo, Arabidopsis thaliana", "conditions": "5 μM iSB09, 3 hours", "method": "Total RNA was extracted as indicated above. The quality of the samples was verified using Agilent 2100 Bioanalyzer. First-strand cDNA was prepared by an EasyScript One-Step gDNA Removal and cDNA Synthesis SuperMix (TransGen Biotech) with random hexamers. Sequencing of cDNA libraries was performed using the DNB-Seq technology at the Beijing Genomics Institute, producing at least 20 million clean reads per sample of paired-end 100-base pair read lengths. RNA-seq data analysis was carried out by the Bioinformatics core facility at Instituto de Biología Molecular y Celular de […]. After quality analysis of raw reads with FastQC (www.bioinformatics.babraham.ac.uk/projects/fastqc/), and quality trimming and adapter removal of raw reads with cutadapt (http://journal.embnet.org/index.php/embnetjournal/article/view/200), clean read pairs longer than 20 nucleotides were mapped to TAIR10 arabidopsis Col-0 reference genome using HISAT2 with default parameters, and nonuniquely mapped pairs were discarded with SAMtools. The number of read counts that uniquely mapped to each arabidopsis gene (Araport11 annotation) was obtained with HTSeq-count. Genes lacking at least 1 TPM ([…]) in the three replicates of at least one of the two conditions were filtered out, and differential expression analysis of the remaining genes was done with DESeq2. […]"}},
  "data": [
    {"smiles": "CCn1c(=O)cc(C)c2cc(CNS(=O)(=O)c3ccccc3)ccc21", "note": "[iSB09]", "values": [
      {"measurement": "IC50", "setting": "ABI1 with AtPYL1", "value": 226, "unit": "nM"},
      {"measurement": "IC50", "setting": "HAB1 with AtPYL4", "value": 330, "unit": "nM"},
      {"measurement": "sensitivity of ABI1 relative to HAB1 to iSB09-mediated CsPYL1^5m-dependent inhibition", "setting": "ABI1 with CsPYL1^5m", "value": "fivefold more sensitive"},
      {"measurement": "IC50", "setting": "AtHAB1ΔN with CsPYL1^5m", "value": 316, "unit": "nM"},
      {"measurement": "leaf temperature by thermal imaging", "setting": "[1]", "value": "increased leaf temperature"},
      {"measurement": "increase of regulation of ABA-responsive markers in CsPYL1^5m background relative to WT", "setting": "ABA-responsive markers", "value": "8- to 10 fold"}
    ]}
  ]
}
